Read-outs that look alike come from different tables or passages of the source.
Assays:
COX-2 = target: T1, COX-2 (Mus musculus, UniProt Q05769); test: Macrophage assay (RAW264.7), COX-2; assay type: cell-based, murine
T1 construct: metabolism by the newly synthesized COX-2; endogenous in cells
T1 sequence (Q05769 18-604): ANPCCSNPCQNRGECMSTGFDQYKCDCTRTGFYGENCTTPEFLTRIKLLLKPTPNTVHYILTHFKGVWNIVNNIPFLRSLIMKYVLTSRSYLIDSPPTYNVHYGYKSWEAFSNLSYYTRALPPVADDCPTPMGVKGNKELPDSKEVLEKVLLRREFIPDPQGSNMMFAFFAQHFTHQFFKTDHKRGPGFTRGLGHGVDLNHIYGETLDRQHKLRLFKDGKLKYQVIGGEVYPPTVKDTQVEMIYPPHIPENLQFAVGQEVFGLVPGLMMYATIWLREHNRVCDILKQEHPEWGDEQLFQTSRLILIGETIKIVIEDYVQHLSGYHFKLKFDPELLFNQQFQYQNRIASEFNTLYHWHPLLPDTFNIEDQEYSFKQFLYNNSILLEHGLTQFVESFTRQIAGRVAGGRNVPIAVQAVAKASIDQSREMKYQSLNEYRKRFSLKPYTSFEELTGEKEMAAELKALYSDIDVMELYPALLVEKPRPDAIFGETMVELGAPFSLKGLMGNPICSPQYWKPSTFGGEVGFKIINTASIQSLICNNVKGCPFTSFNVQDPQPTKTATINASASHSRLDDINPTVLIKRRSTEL
From the text: Thus, NSAID derivatives that are identified as potentially useful in the methods described herein can be further tested using, for example, the RAW264.7 murine macrophage cell line. These cells are readily available (for example, from the American Type Culture Collection (ATCC), Manassas, Va., United States of America) and are easily cultured in large numbers. They normally express low levels of COX-1 and very low to undetectable levels of COX-2. Upon exposure to bacterial lipopolysaccharide (LPS), however, COX-2 levels increase dramatically over the ensuing 24 hour period, and the cells produce PGD2 and PGE2 from endogenous arachidonic acid stores (generally, ˜1 nmol/10^7 cells total PG formation). After LPS exposure, the addition of exogenous arachidonic acid results in the formation of additional PGD2 and PGE2 as a result of metabolism by the newly synthesized COX-2.
This system provides a number of approaches for testing the inhibitory potency of COX-2-selective ligands (e.g., inhibitors). In general, following LPS activation, cells can be treated for 30 minutes with the desired concentrations of candidate derivative(s) in DMSO. ^14C-arachidonic acid can be added, and the cells can be incubated for 15 minutes at 37° C. Product formation can be assessed following extraction and TLC separation of the culture medium. Alternatively, the effects of candidate derivatives on PG synthesis from endogenous arachidonic acid can be assessed by incubating cells with desired concentrations of candidate derivatives 30 minutes prior to LPS exposure. Following a 24-hour incubation, medium can be collected and extracted, and the amount of PGD2 and/or PGE2 can be assayed by gas chromatography-mass spectrometry, liquid chromatography-mass spectrometry, or ELISA.

ovine COX-1 = target: T2, ovine COX-1 (Ovis aries, UniProt P05979); test: IC50 determinations using purified enzymes (TLC assay), COX-1; assay type: biochemical; details: assayed against purified enzymes
T2 construct: can be purified from ovine seminal vesicles by standard procedures; from tissue; host or cells: ovine seminal vesicles
T2 sequence (P05979 25-600): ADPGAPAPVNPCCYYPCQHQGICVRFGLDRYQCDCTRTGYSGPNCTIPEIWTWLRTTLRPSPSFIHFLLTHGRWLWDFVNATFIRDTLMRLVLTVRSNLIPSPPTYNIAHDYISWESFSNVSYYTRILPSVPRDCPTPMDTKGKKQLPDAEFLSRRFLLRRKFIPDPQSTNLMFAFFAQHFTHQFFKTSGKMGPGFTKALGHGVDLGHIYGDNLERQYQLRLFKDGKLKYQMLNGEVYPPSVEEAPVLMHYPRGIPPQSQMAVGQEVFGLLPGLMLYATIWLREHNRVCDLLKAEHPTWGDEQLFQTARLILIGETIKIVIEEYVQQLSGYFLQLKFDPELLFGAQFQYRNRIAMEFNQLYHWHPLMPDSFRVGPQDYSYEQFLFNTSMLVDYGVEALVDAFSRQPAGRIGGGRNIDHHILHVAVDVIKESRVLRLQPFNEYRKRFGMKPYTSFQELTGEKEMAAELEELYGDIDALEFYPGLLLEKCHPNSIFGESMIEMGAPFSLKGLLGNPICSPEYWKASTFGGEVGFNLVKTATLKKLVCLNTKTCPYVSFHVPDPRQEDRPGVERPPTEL

[1] = Table 3, macrophage assay, read-out: IC50 COX-2

SMILES	IC50 (COX-2; [1]) [M]	IC50 (ovine COX-1; Table 3) [nM]	IC50 (COX-2; Table 2, macrophage assay (M), read-out: IC50 COX-2) [M]	IC50 (ovine COX-1; Table 2) [nM]	IC50 (COX-2; read-out: IC50 in RAW 264.7 cells) [M]
CC[N+](CC)=c1ccc2c(-c3ccccc3)c(C)c(/C=C/C=C3/N(CCCCCC(=O)NCCCCNC(=O)Cc4c(C)n(C(=O)c5ccc(Cl)cc5)c5ccc(OC)cc45)c4ccc(S(=O)(=O)[O-])cc4C3(C)C)oc-2c1 [Compound 27ttt]	8.9e-07	> 25000			
COc1ccc2c(c1)c(CC(=O)NCCCCNC(=O)c1ccc(C(=O)[O-])c(C3=c4cc5c6c(c4Oc4c3cc3c7c4CCCN7CCC3)CCC[N+]=6CCC5)c1)c(C)n2C(=O)c1ccc(Cl)cc1 [Compound 27vv]		> 25000			
COC(=O)c1cc(-c2ccc(C)cc2)n(-c2ccc(S(N)(=O)=O)cc2)n1 [Compound 30b]			1.1e-07	> 25000	
COc1ccc2c(c1)c(CC(=O)NCCCCNC(=O)Cc1ccc(Nc3ccc([N+](=O)[O-])c4nonc34)cc1)c(C)n2C(=O)c1ccc(Cl)cc1 [Compound 27ii, N-([2-{4-(7-nitrobenzo[1,2,5]oxadiazol-4-ylamino)phenyl}acetamido]but-4-yl)-2-{1-(4-chlorobenzoyl)-5-methoxy-2-methyl-1H-indol-3-yl]acetamide]	5.7e-07	> 25000			
COc1ccc2c(c1)c(CC(=O)NCCNS(=O)(=O)c1ccc(/N=N/c3ccc(N(C)C)cc3)cc1)c(C)n2C(=O)c1ccc(Cl)cc1 [Compound 27aa, N-(2-Dabsylaminoethyl)-2-{1-(4-chlorobenzoyl)-5-methoxy-2-methyl-1H-indol-3-yl}acetamide]	1.8e-07	> 25000			
CC[N+](CC)=c1ccc2nc3c(cc(NC(=O)CCOCCOCCOCCOCCNC(=O)Cc4c(C)n(C(=O)c5ccc(Cl)cc5)c5ccc(OC)cc45)c4ccccc43)oc-2c1 [Compound 27uu, N-[5-)1-{1-(4-chlorobenzoyl)-5-methoxy-2-methyl-1H-indol-3-yl}-2-6,9,12,15-tetraoxa-3-azaoctadecanamido]-9H-benzo[a]penoxazin-9-ylidene)-N-ethylethanaminium perchlorate]	8.5e-08	> 25000			
COc1ccc2c(c1)c(CC(=O)NCCCCNC(=O)c1ccc(C3=c4cc5c6c(c4Oc4c3cc3c7c4CCCN7CCC3)CCC[N+]=6CCC5)c(C(=O)[O-])c1)c(C)n2C(=O)c1ccc(Cl)cc1 [Compound 27eee]		> 25000			3.2e-07
COc1ccc2c(c1)c(CC(=O)NCCCCNC(=O)c1ccc(C(=O)O)c(-c3c4ccc(=O)cc-4oc4cc(O)ccc34)c1)c(C)n2C(=O)c1ccc(Cl)cc1 [Compound 27qq, N-[(Fluorescein-6-carboxylamido)but-4-yl]-2-[1-(4-chlorobenzoyl)-5-methoxy-2-methyl-1H-indol-3-yl)acetamide]	1.88e-07	> 25000			
COc1ccc2c(c1)c(CC(=O)NCCNS(=O)(=O)c1cccc3c(N(C)C)cccc13)c(C)n2C(=O)c1ccc(Cl)cc1 [Compound 27x]	3e-08	> 25000			

— patent US7736624B2, “Methods and compositions for diagnostic and therapeutic targeting of COX-2” (priority 2006, dated 2010)
